In test [1] the test system is acute paranoid schizophrenia. Conditions: after 2 weeks; cited from earlier work.
Test [2] concerns human patient having a remote head injury, s/p 4 craniotomies and intractable seizures. Nature of the test: Example 7: topical cannabidiol 40 mg at the BONATH, intractable seizures, EEG. Type of test: in vivo. The conditions noted are these: 25 mg milnacipran topical nuchal after cannabidiol 40 mg. The protocol:
The efficacy of a topical cannabidiol formulation was studied in a human patient having a remote head injury, s/p 4 craniotomies and intractable seizures. The patient was treated with cannabidiol 40 mg applied to the BONATH in a topical formulation. There was attenuation of associated focal EEG abnormalities.

Each structure is given as a SMILES string.

Take `CCN1CCCC1CNC(=O)c1cc(S(=O)(=O)CC)c(N)cc1OC` (centres unmarked) [amisulpride]: the psychotic symptoms entry in test [1] is listed as “significant decrease in psychotic symptoms”. Regarding `CCN(CC)C(=O)C1(c2ccccc2)CC1CN` (centres unmarked) [milnacipran], the “EEG after further topical nuchal treatment” value in test [2] was “further attenuated”.

The values are drawn from patent US10632064B2, “Topical regional neuro affective therapy with cannabinoid combination products” (Afgin Pharma, LLC, priority 2015, dated 2020).
